± gives the expanded uncertainty stated by the source.
Test: molar heat capacity at constant pressure
Conditions: 101.33 kPa

CCCCc1ccc(C(=O)Oc2ccc(C#N)c(F)c2)cc1 [4-cyano-3-fluorophenyl 4-butylbenzoate]
molar heat capacity at constant pressure (141.25 K, Crystal 1, Small (less than 1 g) adiabatic calorimetry): 201.94 ± 1.4 J/K/mol
molar heat capacity at constant pressure (142.25 K, Crystal 1, Small (less than 1 g) adiabatic calorimetry): 202.81 ± 1.4 J/K/mol
molar heat capacity at constant pressure (142.97 K, Crystal 2, Small (less than 1 g) adiabatic calorimetry): 216.4 ± 1.5 J/K/mol
molar heat capacity at constant pressure (143.16 K, Crystal 1, Small (less than 1 g) adiabatic calorimetry): 203.97 ± 1.4 J/K/mol
molar heat capacity at constant pressure (144.71 K, Crystal 1, Small (less than 1 g) adiabatic calorimetry): 205.52 ± 1.5 J/K/mol
molar heat capacity at constant pressure (145.06 K, Crystal 1, Small (less than 1 g) adiabatic calorimetry): 206.05 ± 1.4 J/K/mol
molar heat capacity at constant pressure (145.3 K, Crystal 2, Small (less than 1 g) adiabatic calorimetry): 219.62 ± 1.5 J/K/mol
molar heat capacity at constant pressure (146.94 K, Crystal 1, Small (less than 1 g) adiabatic calorimetry): 208.17 ± 1.5 J/K/mol
molar heat capacity at constant pressure (147.18 K, Crystal 1, Small (less than 1 g) adiabatic calorimetry): 208.18 ± 1.5 J/K/mol
molar heat capacity at constant pressure (147.65 K, Crystal 2, Small (less than 1 g) adiabatic calorimetry): 221.78 ± 1.6 J/K/mol
molar heat capacity at constant pressure (148.81 K, Crystal 1, Small (less than 1 g) adiabatic calorimetry): 210.18 ± 1.5 J/K/mol
molar heat capacity at constant pressure (149.66 K, Crystal 1, Small (less than 1 g) adiabatic calorimetry): 210.87 ± 1.5 J/K/mol
molar heat capacity at constant pressure (150 K, Crystal 1, Vacuum adiabatic calorimetry): 211.22 ± 1.3 J/K/mol
molar heat capacity at constant pressure (150 K, Crystal 2, Small (less than 1 g) adiabatic calorimetry): 226.25 ± 1.6 J/K/mol
molar heat capacity at constant pressure (150 K, Crystal 2, Vacuum adiabatic calorimetry): 226.24 ± 1.4 J/K/mol
molar heat capacity at constant pressure (150.66 K, Crystal 1, Small (less than 1 g) adiabatic calorimetry): 212.24 ± 1.5 J/K/mol
molar heat capacity at constant pressure (152.15 K, Crystal 1, Small (less than 1 g) adiabatic calorimetry): 213.41 ± 1.6 J/K/mol
molar heat capacity at constant pressure (152.37 K, Crystal 2, Small (less than 1 g) adiabatic calorimetry): 229.33 ± 1.6 J/K/mol
molar heat capacity at constant pressure (152.5 K, Crystal 1, Small (less than 1 g) adiabatic calorimetry): 214.29 ± 1.5 J/K/mol
molar heat capacity at constant pressure (154.33 K, Crystal 1, Small (less than 1 g) adiabatic calorimetry): 216.32 ± 1.5 J/K/mol
molar heat capacity at constant pressure (154.65 K, Crystal 1, Small (less than 1 g) adiabatic calorimetry): 216.65 ± 1.5 J/K/mol
molar heat capacity at constant pressure (154.75 K, Crystal 2, Small (less than 1 g) adiabatic calorimetry): 232.46 ± 1.6 J/K/mol
molar heat capacity at constant pressure (156.14 K, Crystal 1, Small (less than 1 g) adiabatic calorimetry): 218.31 ± 1.5 J/K/mol
molar heat capacity at constant pressure (157.14 K, Crystal 2, Small (less than 1 g) adiabatic calorimetry): 235.73 ± 1.6 J/K/mol
molar heat capacity at constant pressure (157.17 K, Crystal 1, Small (less than 1 g) adiabatic calorimetry): 219.23 ± 1.5 J/K/mol
molar heat capacity at constant pressure (157.94 K, Crystal 1, Small (less than 1 g) adiabatic calorimetry): 220.33 ± 1.5 J/K/mol
molar heat capacity at constant pressure (159.54 K, Crystal 2, Small (less than 1 g) adiabatic calorimetry): 238.88 ± 1.7 J/K/mol
molar heat capacity at constant pressure (159.69 K, Crystal 1, Small (less than 1 g) adiabatic calorimetry): 222.08 ± 1.6 J/K/mol
molar heat capacity at constant pressure (159.74 K, Crystal 1, Small (less than 1 g) adiabatic calorimetry): 222.37 ± 1.6 J/K/mol
molar heat capacity at constant pressure (160 K, Crystal 1, Vacuum adiabatic calorimetry): 222.43 ± 1.4 J/K/mol
molar heat capacity at constant pressure (160 K, Crystal 2, Vacuum adiabatic calorimetry): 239.47 ± 1.5 J/K/mol
molar heat capacity at constant pressure (161.51 K, Crystal 1, Small (less than 1 g) adiabatic calorimetry): 224.35 ± 1.6 J/K/mol
molar heat capacity at constant pressure (161.96 K, Crystal 2, Small (less than 1 g) adiabatic calorimetry): 242.01 ± 1.7 J/K/mol
molar heat capacity at constant pressure (162.23 K, Crystal 1, Small (less than 1 g) adiabatic calorimetry): 224.93 ± 1.6 J/K/mol
molar heat capacity at constant pressure (163.28 K, Crystal 1, Small (less than 1 g) adiabatic calorimetry): 226.23 ± 1.6 J/K/mol
molar heat capacity at constant pressure (164.39 K, Crystal 2, Small (less than 1 g) adiabatic calorimetry): 245.1 ± 1.7 J/K/mol
molar heat capacity at constant pressure (164.77 K, Crystal 1, Small (less than 1 g) adiabatic calorimetry): 227.75 ± 1.6 J/K/mol
molar heat capacity at constant pressure (164.86 K, Crystal 1, Small (less than 1 g) adiabatic calorimetry): 227.97 ± 1.6 J/K/mol
molar heat capacity at constant pressure (166.27 K, Crystal 1, Small (less than 1 g) adiabatic calorimetry): 229.58 ± 1.6 J/K/mol
molar heat capacity at constant pressure (166.83 K, Crystal 2, Small (less than 1 g) adiabatic calorimetry): 248.12 ± 1.7 J/K/mol
molar heat capacity at constant pressure (167.33 K, Crystal 1, Small (less than 1 g) adiabatic calorimetry): 230.64 ± 1.6 J/K/mol
molar heat capacity at constant pressure (167.66 K, Crystal 1, Small (less than 1 g) adiabatic calorimetry): 231.21 ± 1.6 J/K/mol
molar heat capacity at constant pressure (169.05 K, Crystal 1, Small (less than 1 g) adiabatic calorimetry): 232.8 ± 1.6 J/K/mol
molar heat capacity at constant pressure (169.28 K, Crystal 2, Small (less than 1 g) adiabatic calorimetry): 251.2 ± 1.8 J/K/mol
molar heat capacity at constant pressure (169.91 K, Crystal 1, Small (less than 1 g) adiabatic calorimetry): 233.56 ± 1.6 J/K/mol
molar heat capacity at constant pressure (170 K, Crystal 1, Vacuum adiabatic calorimetry): 233.66 ± 1.4 J/K/mol
molar heat capacity at constant pressure (170 K, Crystal 2, Vacuum adiabatic calorimetry): 252.09 ± 1.6 J/K/mol
molar heat capacity at constant pressure (170.44 K, Crystal 1, Small (less than 1 g) adiabatic calorimetry): 234.45 ± 1.6 J/K/mol
molar heat capacity at constant pressure (171.75 K, Crystal 2, Small (less than 1 g) adiabatic calorimetry): 254.25 ± 1.8 J/K/mol
molar heat capacity at constant pressure (171.81 K, Crystal 1, Small (less than 1 g) adiabatic calorimetry): 235.91 ± 1.6 J/K/mol
molar heat capacity at constant pressure (172.49 K, Crystal 1, Small (less than 1 g) adiabatic calorimetry): 236.43 ± 1.6 J/K/mol
molar heat capacity at constant pressure (173.18 K, Crystal 1, Small (less than 1 g) adiabatic calorimetry): 237.49 ± 1.7 J/K/mol
molar heat capacity at constant pressure (174.23 K, Crystal 2, Small (less than 1 g) adiabatic calorimetry): 257.27 ± 1.8 J/K/mol
molar heat capacity at constant pressure (174.55 K, Crystal 1, Small (less than 1 g) adiabatic calorimetry): 239.04 ± 1.7 J/K/mol
molar heat capacity at constant pressure (175.09 K, Crystal 1, Small (less than 1 g) adiabatic calorimetry): 239.43 ± 1.7 J/K/mol
molar heat capacity at constant pressure (175.91 K, Crystal 1, Small (less than 1 g) adiabatic calorimetry): 240.69 ± 1.7 J/K/mol
molar heat capacity at constant pressure (176.72 K, Crystal 2, Small (less than 1 g) adiabatic calorimetry): 260.38 ± 1.8 J/K/mol
molar heat capacity at constant pressure (177.26 K, Crystal 1, Small (less than 1 g) adiabatic calorimetry): 242.06 ± 1.7 J/K/mol
molar heat capacity at constant pressure (177.69 K, Crystal 1, Small (less than 1 g) adiabatic calorimetry): 242.43 ± 1.7 J/K/mol
molar heat capacity at constant pressure (178.61 K, Crystal 1, Small (less than 1 g) adiabatic calorimetry): 243.74 ± 1.7 J/K/mol
molar heat capacity at constant pressure (179.23 K, Crystal 2, Small (less than 1 g) adiabatic calorimetry): 263.65 ± 1.8 J/K/mol
molar heat capacity at constant pressure (179.95 K, Crystal 1, Small (less than 1 g) adiabatic calorimetry): 245.46 ± 1.7 J/K/mol
molar heat capacity at constant pressure (180 K, Crystal 1, Vacuum adiabatic calorimetry): 245.15 ± 1.5 J/K/mol
molar heat capacity at constant pressure (180 K, Crystal 2, Vacuum adiabatic calorimetry): 264.63 ± 1.6 J/K/mol
molar heat capacity at constant pressure (180.31 K, Crystal 1, Small (less than 1 g) adiabatic calorimetry): 245.52 ± 1.7 J/K/mol
molar heat capacity at constant pressure (181.28 K, Crystal 1, Small (less than 1 g) adiabatic calorimetry): 246.9 ± 1.7 J/K/mol
molar heat capacity at constant pressure (181.74 K, Crystal 2, Small (less than 1 g) adiabatic calorimetry): 266.86 ± 1.9 J/K/mol

— the NIST ThermoML archive (doi:10.1016/j.jct.2012.03.031)
